Results as given in publication PMC5438648, “Identifying the structure-activity relationship of leelamine necessary for inhibiting intracellular cholesterol transport” (Oncotarget, 2017).
Like-named read-outs stand apart in the source and are kept apart here.

How the values were obtained:
1205 Lu melanoma cells = assay: MTS cell viability assay, 1205 Lu melanoma cells; type: cell-based, human; conditions: 72 hours treatment, read-out: Melanoma cell killing efficacy (IC50 values) 1205 Lu (Melanoma cells)
Protocol: (§1) Dr. Craig Myers, Penn State College of Medicine, Hershey, PA provided normal human fibroblast cell line FF2441. Mutant V600E-BRAF human melanoma cell line 1205 Lu was provided by Dr. Herlyn; Wistar Institute, Philadelphia, PA and UACC 903 was provided by Dr. Mark Nelson; University of Arizona, Tucson, AZ. Cell lines were maintained in a 37°C humidified 5% CO2 atmosphere incubator and periodically monitored for phenotypic, genotypic characteristics, and tumorigenic potential to validate and confirm cell line identity.
(§2) In brief, 5 × 10^3 cells per well in 100 μL of media were seeded and grown in a 96-well plate for 48 to 72 hours and treated with either DMSO vehicle control or 0.62 to 100 μmol/L of compounds for 72 hours. IC50 values for each compound in μmol/L for respective cell lines were measured from three independent experiments using GraphPad Prism version 4.01 (GraphPad Software, La Jolla, CA). In addition, recovery and viability assessment was also measured with these compounds co-treated simultaneously with 10 nmol/L of bafilomycin A1 (BafA1) or 1 mMol/L β-cyclodextrin and the viability was measured using the MTS assay after 24 hours.

UACC 903 melanoma cells [1] = assay: MTS cell viability assay, UACC 903 melanoma cells; type: cell-based, human; conditions: 72 hours treatment, read-out: Melanoma cell killing efficacy (IC50 values) UACC 903 (Melanoma cells)
Protocol: as §1, §2

[2] = test system: normal human fibroblast cell line FF2441; assay: MTS cell viability assay, normal fibroblasts; type: cell-based; conditions: 72 hours treatment, read-out: Melanoma cell killing efficacy (IC50 values) FF2441 (Normal Cells)
Protocol: as §1, §2

UACC 903 melanoma cells [3] = assay: Tumorigenicity assessment, xenografted melanoma tumors; type: in vivo; conditions: 80 mg/kg oral daily; UACC 903 xenograft, athymic nu/nu mice
Protocol: (§3) 1 × 10^6 UACC 903 cells in 0.2 mL of DMEM supplemented with 10% FBS were subcutaneously injected above both left and right rib cages of 4–6 week old female athymic nu/nu mice. Six to eight days later, mice were randomly sorted into vehicle control 10% PEG (Poly ethylene glycol) and experimental compound 4a or leelamine groups, followed by daily oral administration of 80 mg/kg body weight. Volume of developing tumors in mm^3 was measured on alternate days using calipers along with assessment of body weights.

[4] = test system: UACC 903 melanoma cell line; assay: Western blot of signaling pathways (PI3K/AKT, STAT3, MAPK; pERK1/2); type: cell-based, human; conditions: active 3-5 μmol/L, inactive 30-50 μmol/L, 24 hours
Source text: (§4) Cell lysates were harvested and processed as described in refs [14, 29, 31, 34]. […] Protein lysates were collected for Western blotting analysis. Blots were probed with antibodies according to each supplier's recommendations: antibodies to IGF-1R, total AKT, phosphor AKT (Ser473), total PRAS40, phospho-PRAS40 (Thr246), total ERK1/2, phospho-ERK1/2 (Thr202/Tyr 204), total CDK2, phospho-CDK2 (Thr160), p62, LC3B, total STAT, phospho-STAT3 (Tyr705), caspase 3 and cleaved PARP from Cell Signaling Technology (Danvers, MA); cyclin D1, α-enolase and secondary antibodies conjugated with horseradish peroxidase from Santa Cruz Biotechnology (Santa Cruz, CA). Immunoblots were developed using the enhanced chemiluminescence (ECL) detection system (Thermo Fisher Scientific, Rockford, IL).

melanoma cells = assay: Autophagic flux: Western blot of p62 and LC3B; type: cell-based, human; conditions: Western blotting, 24 hours
Source text: as §4

[5] = Body weight and sub-chronic toxicity assessment (blood biomarkers) in tumor-bearing mice; type: in vivo; conditions: 80 mg/kg oral daily; for body weights of mice: 24 days of treatment
Protocol: as §3
At the end of tumorigenicity assessment, blood was collected from each euthanized animal in a serum separator tube with lithium heparin (BD Microtainer), following cardiac puncture and analyzed for levels of ALT (Alanine aminotransferase), AST (Aspartate aminotransferase), ALKP (Alkaline phosphatase), ALB (Albumin), GLB (Globulin), TPR (Total Protein), TBIL (Total bilirubin), BUN (Blood urea nitrogen), GLU (Glucose), CK (Creatine kinase), CAL (Calcium).

UACC 903 cells = assay: Endocytosis: Alexa Fluor 488 transferrin uptake; type: cell-based, human; conditions: UACC 903, 2 hours treatment
Protocol: The endocytotic capacity of the cells was measured as described in Kuzu et al. 2014 [14]. Briefly, UACC 903 cells were seeded into chamber slides and treated with the particular agents for 2 hours. Next, Alexa Flor 488 tagged transferrin protein was added at a final concentration of 5 μg/mL and incubated for 30 minutes. Cells were then fixed on the slide with 4% paraformaldehyde and analyzed by fluorescence microscopy as described previously. Measurement of compounds effects on lysosomotropism was assessed through the appearance of cellular vacuolization of UACC 903 cells growing at 70 to 80% confluency on 100 mm culture dishes compared to controls. For some experimental conditions cells were co-treated with 10 nmol/L of BafA1 for 3 hours. Light microscopic images were used to assess cellular vacuolization.

[6] = Dose escalation for oral administration of leelamine; type: in vivo; conditions: 80 mg/kg body weight (QOD) over 14 days, Swiss Webster mice
Protocol: To determine the effective oral dosage of leelamine, a dose escalation study was conducted in 4–6 week old Swiss Webster mice. […] Animals were weighed daily to ascertain potential toxic effects leading to changes in body weight. At the end of treatment, blood was collected from each sacrificed animal in a serum separator tube with lithium heparin (BD Microtainer) following cardiac puncture and levels of serum biomarkers of major organ toxicity were measured. In addition, vital organs including liver, spleen, kidney, intestine, lung and heart from control and experimental animals were collected on day 14, formalin fixed, paraffin-embedded, H&E stained and analyzed microscopically for changes in cellular morphology or tissue architecture.

[7] = Pharmacokinetics of leelamine in the serum of mice; type: in vivo; conditions: 80 mg/kg oral, Swiss Webster mice
Protocol: Leelamine was extracted from serum as reported previously. Swiss Webster mice were treated orally with 80 mg/kg body weight of leelamine, animals were euthanized and blood drawn by cardiac puncture at various time periods over 36 hours. Samples were kept at room temperature for 30 minutes followed by serum separation by centrifugation for 5 minutes at 5,000 rpm. Next, 20 μL of the collected serum was added to 80 μL of acetonitrile along with 5 μL of propranolol (RS)-1-(1-methylethylamino)-3-(1-naphthyloxy)propan-2-ol), which served as an internal standard (transition of m/z 259.9 to 116.0). Solution was vortexed for 30 seconds and then centrifuged at 10,000 rpm for 10 minutes. Supernatant was transferred to the auto sampler vials and subject to liquid chromatography-mass spectrometry using LC-MS/MS 2010 EV system (Shimadzu, Tokyo, Japan).

| Compound | IC50 (1205 Lu melanoma cells; Homo sapiens, 1205Lu, 72 h) [µM] | IC50 (UACC 903 melanoma cells [1]; Homo sapiens, UACC-903, 72 h) [µM] | IC50 [2] [µM] | effect on PI3K/AKT, STAT3 and MAPK signaling pathways [4] | also measured |
| --- | --- | --- | --- | --- | --- |
| CC(C)C1=CC2=CCC3[C@](C)(CCC[C@@]3(C)C(N)=O)C2CC1 (stereo partly drawn) [3a, (1R, 4aR)-7-isopropyl-1,4a-dimethyl-1,2,3,4,4a,4b,5,6,10,10a-decahydrophenanthrene-1-carboxamide] | 81 ± 2.1 | 70.1 ± 1.8 | > 100 |  |  |
| CNC(=O)[C@]1(C)CCC[C@]2(C)C3CCC(C(C)C)=CC3=CCC21 (stereo partly drawn) [3b, (1R, 4aR)-N, 1,4a-trimethyl-7-(propan-2-yl)-1,2,3,4,4a, 4b, 5,6, 10, 10a-decahydrophenanthrene-1-carboxamide] | > 100 | > 100 | > 100 |  |  |
| CCN(CC)C(=O)[C@]1(C)CCC[C@]2(C)C3CCC(C(C)C)=CC3=CCC21 (stereo partly drawn) [3c, (1R, 4aR)-N, N-diethyl-1,4a-dimethyl-7-(propan-2-yl)-1,2,3,4,4a, 4b, 5,6, 10, 10a-decahydrophenanthrene-1-carboxamide] | > 100 | > 100 | > 100 |  |  |
| CC(C)C1=CC2=CCC3[C@](C)(CN)CCC[C@]3(C)C2CC1 (stereo partly drawn) [4a, [(1R, 4aR)-1,4a-dimethyl-7-(propan-2-yl)-1,2,3,4,4a, 4b, 5,6,10,10a-decahydrophenanthren-1-yl] methanamine] | 2.9 | 2.1 | 8.33 ± 0.4 | inhibited | reduction of tumor volume compared with vehicle control (UACC 903 melanoma cells [3]): 51%; autophagic flux (p62 and LC3B proteins) (melanoma cells): dose dependently induced accumulation of p62 and LC3B proteins; body weights of mice [5]: No significant differences; blood parameters (ALT, AST, ALKP, ALB, GLB, TPR, TBIL, BUN, GLU, CK and CAL) indicative of organ-related sub-chronic toxicity ([5]; end of study): fell in the normal range |
| CNC[C@]1(C)CCC[C@]2(C)C3CCC(C(C)C)=CC3=CCC12 (stereo partly drawn) [4b, {[(1R, 4aR)-1,4a-dimethyl-7-(propan-2-yl)-1,2,3,4,4a, 4b, 5,6,10,10a-decahydrophenanthren-1-yl]methyl}(methyl) amine] | 2.3 | 2.3 | 9.33 ± 1.2 |  |  |
| CCN(CC)C[C@]1(C)CCC[C@]2(C)C3CCC(C(C)C)=CC3=CCC12 (stereo partly drawn) [4c, N-ethyl-N-(((1R, 4aR)-7-isopropyl-1,4a-dimethyl-1,2,3,4,4a, 4b,5,6,10,10a-decahydrophenanthren-1-yl)methyl) ethanamine] | 24.3 ± 2.5 | 24.4 ± 1.4 | > 100 |  |  |
| CC(C)c1ccc2c(c1)CCC1[C@](C)(CNC(=O)C(F)(F)F)CCC[C@]21C (stereo partly drawn) [5a, N-{[(1R, 4aS)-1,4a-dimethyl-7-(propan-2-yl)-1,2,3,4,4a, 9, 10, 10a-octahydrophenanthren-1-yl]methyl}-2,2,2-trifluoroacetamide] | 2 | 1.2 | 5.17 ± 0.1 | inhibited | autophagic flux (p62 and LC3B proteins) (melanoma cells): dose dependently induced accumulation of p62 and LC3B proteins |
| CC(C)c1ccc2c(c1)CCC1[C@](C)(CNC(=O)C(Br)(Br)Br)CCC[C@]21C (stereo partly drawn) [5b, N-{[(1R, 4aS)-1,4a-dimethyl-7-(propan-2-yl)-1,2,3,4,4a, 9, 10, 10a-octahydrophenanthren-1-yl]methyl}-2,2,2-tribromoacetamide] | 1.8 | 1 | 4.1 ± 0.2 |  |  |
| CC(=O)NC[C@]1(C)CCC[C@]2(C)c3ccc(C(C)C)cc3CCC12 (stereo partly drawn) [5c, N-{[(1R, 4aS)-1,4a-dimethyl-7-(propan-2-yl)-1,2,3,4,4a, 9, 10, 10a-octahydrophenanthren-1-yl]methyl} acetamide] | > 100 | 89.4 ± 3.3 | > 100 | did not affect these pathways |  |
| CC(C)c1ccc2c(c1)CCC1[C@](C)(CNC(=O)c3ccccc3)CCC[C@]21C (stereo partly drawn) [5d, N-(((1R, 4aS)-7-isopropyl-1,4a-dimethyl-1,2,3,4,4a, 9, 10, 10a-octahydrophenanthren-1-yl)methyl) benzamide] | > 100 | > 100 | > 100 |  |  |
| CC(C)c1ccc2c(c1)CCC1[C@](C)(CNCc3ccccc3)CCC[C@]21C (stereo partly drawn) [5e, N-benzyl-1-((1R, 4aS)-7-isopropyl-1,4a-dimethyl-1,2,3,4,4a, 9, 10, 10a-octahydrophenanthren-1-yl) methanamine] | 7 | 6 | 3.13 ± 0.4 |  | IC50 (1205 Lu melanoma cells): 7.05 ± 0.7 µM |
| CC(C)c1ccc2c(c1)CCC1[C@](C)(CNC(c3ccccc3)(c3ccccc3)c3ccccc3)CCC[C@]21C (stereo partly drawn) [5f, {[(1R, 4aS)-1,4a-dimetyl-7-(propan-2-yl)-1,2,3,4,4a, 9, 10, 10a-octahydrophenanthren-1-yl]methyl} (triphenylmethyl) amine] | > 100 | > 100 | > 100 |  |  |
| CC(C)C1=CC2=CC[C@@H]3[C@](C)(CCC[C@@]3(C)C(=O)O)[C@H]2CC1 [Abietic acid, reference compound] | > 100 | > 100 | > 100 | did not affect these pathways | cellular endocytosis (Alexa Fluor conjugated transferrin uptake) (UACC 903 cells): did not occur |
| CC(C)c1ccc2c(c1)CCC1C(C)(CN)CCCC21C (stereo not shown) [Leelamine] | 1.93 ± 0.2 | 1.35 ± 0.1 | 8.91 ± 0.6 | inhibited | weight loss on repeated oral dosing [6]: did not cause any weight loss; autophagic flux (p62 and LC3B proteins) (melanoma cells): dose dependently induced accumulation of p62 and LC3B proteins; body weights of mice [5]: No significant differences; time present in the serum ([7]; followed over 36 hours): ≤ 24 h; Tmax ([7]; mouse, serum, LC-MS/MS, read-out: time of maximum concentration in serum): 6 h |
| [(1R, 4aR)-1,4a-dimethyl-7-(propan-2-yl)-1, 2, 3, 4, 4a, 4b, 5, 6, 7,10a-decahydrophenanthren-1-yl] methanol [2b] |  |  |  |  | IC50 (1205 Lu melanoma cells): 60.3 ± 1.6 µM; IC50 (UACC 903 melanoma cells [1]): 52.6 ± 1.4 µM |
